Experimental data from ChEMBL document CHEMBL1157586 (Bioorg Med Chem, 2010).
pIC50: −log10 of the molar value. Values after ≈ are worked out from the molar mass of the structure shown.

Legend:
[1] = Solubility at pH 7; format: physicochemical; conditions: buffer
[2] = biological target: Cyclin-dependent kinase 2/cyclin A (Homo sapiens, UniProt P24941); experiment: Inhibition of human CDK2/cyclin A expressed in Escherichia coli BL21 by scintillation proximity assay
[3] = tested on: A2780; experiment: Antiproliferative activity against human A2780 cells after 72 hrs by CellTiter-Glo luminescence assay; conditions: A2780, 72 h

solubility [1] [µM]	pIC50 [2]	pIC50 [3]	SMILES
> 225	8.05	6.85	CN1CCC(C(=O)N2Cc3c(NC(=O)C4CCC4)n[nH]c3C2(C)C)CC1
> 225	7.96	6.19	CCCNC(=O)Nc1n[nH]c2c1CN(C(=O)C1CCN(C)CC1)C2(C)C
> 225	6.77	6.19	CC(C)(C)C(=O)N1Cc2c(NC(=O)C3CCNCC3)n[nH]c2C1(C)C
191 (≈ 85.9 µg/mL)	7.59	7.22	CN1CCC(C(=O)N2Cc3c(NC(=O)c4ccc(C(F)(F)F)cc4)n[nH]c3C2(C)C)CC1
> 225	7.11	6.24	CN(C)CC(=O)Nc1n[nH]c2c1CN(C(=O)C(C)(C)C)C2(C)C
> 225	8.30	6.85	CN1CCC(C(=O)N2Cc3c(NC(=O)c4ccsc4)n[nH]c3C2(C)C)CC1
> 225	7.48	< 5.30	CN1CCC(C(=O)N2Cc3c(NC(=O)c4ccco4)n[nH]c3C2(C)C)CC1
204 (≈ 78.6 µg/mL)	7.52	6.19	CC1(C)c2[nH]nc(NC(=O)c3ccc(F)cc3)c2CN1C(=O)C1CCNCC1
235 (≈ 84.2 µg/mL)		6.57	CC(C)(C)C(=O)N1Cc2c(NC(=O)c3ccc(F)cc3)n[nH]c2C1(C)C
205 (≈ 70 µg/mL)	7.31	6.96	CC(C)(C)C(=O)N1Cc2c(NC(=O)c3ccncc3)n[nH]c2C1(C)C
> 225	7.85	6.39	CCN1CCC(C(=O)N2Cc3c(NC(=O)CC(C)C)n[nH]c3C2(C)C)CC1
> 225	7.85	7.00	CN1CCC(C(=O)N2Cc3c(NC(=O)c4ccc(F)c(F)c4)n[nH]c3C2(C)C)CC1
219 (≈ 94.5 µg/mL)	7.57	6.57	CN1CCC(C(=O)N2Cc3c(NC(=O)c4ccc5ccccc5c4)n[nH]c3C2(C)C)CC1
204 (≈ 87.2 µg/mL)	5.32	< 5.00	CC(=O)N1CCC(C(=O)N2Cc3c(NC(=O)c4ccc(F)cc4)n[nH]c3C2(C)C)CC1
200	7.80	7.22	OC[C@H]1O[C@H](OC[C@H]2O[C@@H](O[C@]3(CO)O[C@H](CO)[C@@H](O)[C@@H]3O)[C@H](O)[C@@H](O)[C@@H]2O)[C@H](O)[C@@H](O)[C@H]1O.OC[C@H]1O[C@H](OC[C@H]2O[C@H](O[C@]3(CO)O[C@H](CO)[C@@H](O)[C@@H]3O)[C@H](O)[C@@H](O)[C@@H]2O)[C@H](O)[C@@H](O)[C@H]1O
> 225	7.64	6.80	CN1CCC(C(=O)N2Cc3c(NC(=O)c4ccccc4)n[nH]c3C2(C)C)CC1
155 (≈ 60.1 µg/mL)	8.00	7.52	CN1CCC(C(=O)N2Cc3c(NC(=O)c4cccs4)n[nH]c3C2(C)C)CC1

Further lines, the molecule ahead of its results:

SMILES	solubility [1] [µM]	pIC50 [2]	pIC50 [3]
CN1CCC(C(=O)N2Cc3c(NC(=O)C4CC4)n[nH]c3C2(C)C)CC1	> 225	7.82	5.85
CCN1CCC(C(=O)N2Cc3c(NC(=O)c4ccc(F)cc4)n[nH]c3C2(C)C)CC1	> 225	7.52	6.54
CN1CCC(C(=O)N2Cc3c(NC(=O)Nc4cccc(F)c4)n[nH]c3C2(C)C)CC1	> 225	8.00	6.46
CN1CCC(C(=O)N2Cc3c(NC(=O)c4ccncc4)n[nH]c3C2(C)C)CC1	> 225	7.60	6.30
CC(C)CC(=O)Nc1n[nH]c2c1CN(C(=O)C1CCN(C3CC3)CC1)C2(C)C	> 225	7.62	6.49
CC1(C)c2[nH]nc(NC(=O)c3ccc(F)cc3)c2CN1C(=O)N1CCN(CCO)CC1	> 225	7.22	< 5.30
CN1CCC(C(=O)N2Cc3c(NC(=O)c4cccc(F)c4)n[nH]c3C2(C)C)CC1	> 225	7.85	6.70
CC1(C)c2[nH]nc(NC(=O)c3ccc(F)cc3)c2CN1C(=O)C1CCN(C2CC2)CC1	> 225	7.17	6.42
CC1(C)c2[nH]nc(NC(=O)c3ccc(F)cc3)c2CN1C(=O)N1CCN(c2ccccc2)CC1	55 (≈ 25.4 µg/mL)	5.46	
CC(=O)N1CCN(C(=O)N2Cc3c(NC(=O)c4ccc(F)cc4)n[nH]c3C2(C)C)CC1	> 225	6.27	< 5.00
CN1CCN(C(=O)N2Cc3c(NC(=O)c4ccc(F)cc4)n[nH]c3C2(C)C)CC1	> 225	7.34	6.74
CC(C)(C)C(=O)N1Cc2c(NC(=O)c3cccnc3)n[nH]c2C1(C)C	207 (≈ 70.7 µg/mL)	7.30	6.16
CN1CCC(C(=O)N2Cc3c(NC(=O)c4cc(F)cc(F)c4)n[nH]c3C2(C)C)CC1	> 225	7.80	6.89
CN1CCC(C(=O)Nc2n[nH]c3c2CN(C(=O)C(C)(C)C)C3(C)C)CC1	> 225	6.67	6.46
CN1CCC(C(=O)N2Cc3c(NC(=O)c4ccc(Cl)cc4)n[nH]c3C2(C)C)CC1	> 225	7.82	6.92
CN1CCC(C(=O)N2Cc3c(NC(=O)NCc4ccccc4)n[nH]c3C2(C)C)CC1	> 225	7.68	5.57
CN1CCC(C(=O)N2Cc3c(NC(=O)c4ccc(F)cc4)n[nH]c3C2(C)C)CC1	> 225	7.64	6.92
